{"source": "patent US12416052B2", "about": "“Capturing, concentrating, and detecting microbes in a sample using magnetic ionic liquids and recombinase polymerase amplification” (priority 2019, dated 2025)", "key": {"[1]": {"test_system": "P. carotovorum pv. carotovorum", "test": "MIL-based whole-cell extraction", "parameters": "species or system Pectobacterium carotovorum", "details": "EF determined using Columbia Agar", "protocol": "A universal schematic for MIL-based cell extraction is depicted in FIG. 7B. A 1 mL volume of diluted cell suspension was added to a flat-bottomed 4-mL screw cap glass vial. Fifteen microliters of either the Ni(II) or Dy(III) MIL was added and dispersed into microdroplets by vortex agitation for 30 s. The aqueous phase was decanted following dispersive extraction, and the MIL was subjected to a brief wash step using 1 mL of nuclease-free water (Integrated DNA Technologies, Coralville, IA, USA) to ensure adequate removal of loosely or incidentally bound cells. […]\nFollowing back-extraction, aliquots of the cell-enriched back-extraction medium were serially diluted in 0.1% peptone water and a 10 μL aliquot of each dilution was applied to a separate lane on square plates containing an appropriate agar medium. […] Colonies were counted and colony forming units (CFU) were determined. The enrichment factor (EF) for MIL-based extraction was calculated using Equation 1, where CMIL represents the concentration of bacteria in suspension following extraction using the MIL and CS is the initial concentration of bacteria in the sample."}, "[2]": {"test": "Density of MIL", "format": "physicochemical"}, "[3]": {"test_system": "Salmonella serovars", "format": "cell-based", "protocol": "The following statistical analysis was performed in SAS 9.4. Four master suspensions of bacteria were prepared for four Salmonella enterica serovars: subsp. typhimurium, subsp. arizonae, subsp. diarizonae and subsp. houtenae. Two master suspensions were made for the remaining three Salmonella serovars or species: S. enterica subsp. indica, subsp. salamae and S. bongori. For E. coli O157:H7, two master suspensions of bacteria were prepared for each of the eight strains studied. For all bacteria tested, two replicate extractions from the same master suspension were performed, using the 10-3 dilution. Following MIL-based capture, back-extraction solutions were plated to non-selective agar (TSA) and selective agar (BSA) for Salmonella and SMAC for E. coli. To identify whether significant differences existed for the capture of Salmonella and E. coli O157:H7, we applied a linear mixed model for the response variable (enrichment factor) with log transformation in order to reduce skewness. […]\nIn order to explore the broader utility of our approach, evaluation of additional cell types is needed. […] We later determined that VRBGA was a suitable common medium for this purpose and used this in our statistical analysis. […] Enrichment factors were calculated for Salmonella on both non-selective (TSA) and selective agars (BSA) and for E. coli O157:H7 on non-selective agar (TSA). […]"}, "[4]": {"test_system": "Salmonella enterica subsp. enterica ser. Typhimurium ATCC 14028", "format": "cell-based", "parameters": "key to Relative Affinity for MIL: +++++: higher losses during wash step are due to lower cellular affinity for the MIL; ++++: higher losses during wash step are due to lower cellular affinity for the MIL; +++: higher losses during wash step are due to lower cellular affinity for the MIL; ++: higher losses during wash step are due to lower cellular affinity for the MIL; +: higher losses during wash step are due to lower cellular affinity for the MIL", "protocol": "(§1) A universal schematic for MIL-based cell extraction is depicted in FIG. 7B. A 1 mL volume of diluted cell suspension was added to a flat-bottomed 4-mL screw cap glass vial. Fifteen microliters of either the Ni(II) or Dy(III) MIL was added and dispersed into microdroplets by vortex agitation for 30 s. The aqueous phase was decanted following dispersive extraction, and the MIL was subjected to a brief wash step using 1 mL of nuclease-free water (Integrated DNA Technologies, Coralville, IA, USA) to ensure adequate removal of loosely or incidentally bound cells. After washing, release of viable cells from the MIL extraction phase was carried out using a “back-extraction” step accomplished through addition of 1 mL of an ionically-rich nutritive medium comprised of 20 g L^−1 tryptone and 10 g L^−1 NaCl, followed by a 120 s vortex step. After back-extraction, aliquots of the cell-enriched back-extraction medium were enumerated using the track dilution method using 100×100 mm square, gridded TSA, BSA, CA or VRBGA plates.\n(§2) Following back-extraction, aliquots of the cell-enriched back-extraction medium were serially diluted in 0.1% peptone water and a 10 μL aliquot of each dilution was applied to a separate lane on square plates containing an appropriate agar medium. The plates were then tilted at an approximately 80° angle for 15 min to allow the droplets to travel toward the opposite end of the plate. The plates were incubated for 24 h at 37° C. (TSA, VRBGA), for 48 h at 37° C. (BSA) or for 24 h at 37° C. (CA). Colonies were counted and colony forming units (CFU) were determined. The enrichment factor (EF) for MIL-based extraction was calculated using Equation 1, where CMIL represents the concentration of bacteria in suspension following extraction using the MIL and CS is the initial concentration of bacteria in the sample.\nBecause culture-based methods depend on sample preparation steps that preserve bacterial viability, potential deleterious cytotoxic effects imparted by MIL extractants must be considered. To begin our further study of MIL-bacterial interactions, we selected S. typhimurium ATCC 14028 as a model gram-negative pathogen and the Ni(II) MIL as extractant."}, "[5]": {"test_system": "S. enterica subsp. salamae", "test": "MIL-based whole-cell extraction", "parameters": "species or system Salmonella enterica", "details": "1×10^6 CFU mL^−1 in TSB, 15 μL MIL", "protocol": "as §1, §2\n(§3) In order to explore the broader utility of our approach, evaluation of additional cell types is needed. We began this extended evaluation of the Ni(II) MIL with seven representative DNA subgroups of Salmonella and eight strains of E. coli O157:H7. Briefly, a 1 mL aliquot of TSB was inoculated with 1×10^6 CFU mL^−1 of bacteria, and spiked with 15 μL of the Ni(II) MIL. MIL-based extraction was performed and 10 μL aliquots of the back-extraction solution were enumerated using TSA and BSA plates (Salmonella) or TSA plates (E. coli O157:H7). […] We later determined that VRBGA was a suitable common medium for this purpose and used this in our statistical analysis. Average CFU counts were compared to standards that were not exposed to the Ni(II) MIL. Enrichment factors were calculated for Salmonella on both non-selective (TSA) and selective agars (BSA) and for E. coli O157:H7 on non-selective agar (TSA). […] Note: As BSA is a Salmonella-specific agar E. coli O157:H7 was not plated to BSA in this example."}, "[6]": {"test_system": "S. enterica subsp. houtenae", "test": "MIL-based whole-cell extraction", "parameters": "species or system Salmonella enterica", "details": "1×10^6 CFU mL^−1 in TSB, 15 μL MIL", "protocol": "as §1, §2, §3"}, "[7]": {"test_system": "S. enterica subsp. indica", "test": "MIL-based whole-cell extraction", "parameters": "species or system Salmonella enterica", "details": "1×10^6 CFU mL^−1 in TSB, 15 μL MIL", "protocol": "as §1, §2, §3"}, "[8]": {"details": "Table 3, 1×10^5 CFU mL^−1 in TSB, 15 μL MIL"}, "[9]": {"details": "Table 4, 1×10^6 CFU mL^−1 in TSB, 15 μL MIL"}, "[10]": {"details": "average over exposure times 0-15 min (n=4)"}, "[11]": {"details": "exposure time 0 min, 1×10^5 CFU mL^−1 in TSB, 15 μL MIL"}}, "note": "Like-named read-outs stand apart in the source and are kept apart here.", "data": [{"smiles": "CCCCCCCCCCCCCC[P+](CCCCCC)(CCCCCC)CCCCCC.O=C([CH-]C(=O)C(F)(F)F)C(F)(F)F.O=C([CH-]C(=O)C(F)(F)F)C(F)(F)F.O=C([CH-]C(=O)C(F)(F)F)C(F)(F)F.[Ni+2]", "note": "[Ni(II) MIL, [P66614^+][Ni(hfacac)3^−]]", "values": [{"measurement": "Enrichment Factor", "setting": "[1]", "result": 24}, {"measurement": "density", "setting": "[2]", "result": "~1.3", "unit": "g/mL"}, {"measurement": "MIL-conferred injury: recovery on TSA or BSA", "setting": "[3]; no statistically significant differences (p-value=0.7248)", "result": "no detectable injury"}, {"measurement": "recovery on VRBGA compared with TSA", "setting": "[3]; p-value=0.0004", "result": "significantly lower"}, {"measurement": "Relative Affinity for MIL", "setting": "[4]", "result": "++++"}, {"measurement": "enrichment factors", "setting": "[4]; Example 2, 2×T, 1×NaCl back-extraction medium", "result": "approximately 12"}, {"measurement": "Enrichment Factor (BSA)", "setting": "[4]; [8]", "result": 14}, {"measurement": "Enrichment Factor (TSA)", "setting": "[4]; [8]", "result": 10}, {"measurement": "Enrichment Factor (BSA)", "setting": "[4]; [9]", "result": 6}, {"measurement": "Enrichment Factor (TSA)", "setting": "[4]; [9]", "result": 8}, {"measurement": "average EF value (BSA)", "setting": "[4]; [10]", "result": "8.2±1.0"}, {"measurement": "average EF value (TSA)", "setting": "[4]; [10]", "result": "7.2±0.6"}, {"measurement": "Percent-Loss", "setting": "[4]; cells lost to wash solution", "result": "53 ± 3", "unit": "%"}, {"measurement": "Enrichment Factor (BSA)", "setting": "[4]; [11]", "result": 7}, {"measurement": "Enrichment Factor (TSA)", "setting": "[4]; [11]", "result": 8}, {"measurement": "Enrichment Factor (BSA)", "setting": "[4]; exposure time 5 min", "result": 8}, {"measurement": "Enrichment Factor (TSA)", "setting": "[4]; exposure time 5 min", "result": 7}, {"measurement": "Enrichment Factor (BSA)", "setting": "[4]; exposure time 10 min", "result": 8}, {"measurement": "Enrichment Factor (TSA)", "setting": "[4]; exposure time 10 min", "result": 6}, {"measurement": "Enrichment Factor (BSA)", "setting": "[4]; exposure time 15 min", "result": 9}, {"measurement": "Enrichment Factor (TSA)", "setting": "[4]; exposure time 15 min", "result": 8}, {"measurement": "Enrichment Factor (BSA)", "setting": "[5]", "result": 9}, {"measurement": "Enrichment Factor (TSA)", "setting": "[5]", "result": 12}, {"measurement": "Enrichment Factor (BSA)", "setting": "[6]", "result": 8}, {"measurement": "Enrichment Factor (TSA)", "setting": "[6]", "result": 8}, {"measurement": "Enrichment Factor (BSA)", "setting": "[7]", "result": 4}, {"measurement": "Enrichment Factor (TSA)", "setting": "[7]", "result": 3}]}]}
